In patent publication US20090012103A1, “SUBSTITUTED HETEROCYCLIC COMPOUNDS” (priority 2007, published 2009):

Columns and labels:
[1] = biological target: T1, wild-type human cardiac sodium channel, hNav1.5 (Homo sapiens, UniProt Q14524); experiment: Late INa screening assay (late sodium current, PatchXpress whole cell patch clamp); assay type: cell-based; details: read-out: Late INa % blk
hERG potassium channel = hERG potassium channel (Homo sapiens, UniProt Q12809); experiment: hERG screening assay (PatchXpress patch clamp, CHO cell line)
Chain of hERG potassium channel (Q12809 whole entry): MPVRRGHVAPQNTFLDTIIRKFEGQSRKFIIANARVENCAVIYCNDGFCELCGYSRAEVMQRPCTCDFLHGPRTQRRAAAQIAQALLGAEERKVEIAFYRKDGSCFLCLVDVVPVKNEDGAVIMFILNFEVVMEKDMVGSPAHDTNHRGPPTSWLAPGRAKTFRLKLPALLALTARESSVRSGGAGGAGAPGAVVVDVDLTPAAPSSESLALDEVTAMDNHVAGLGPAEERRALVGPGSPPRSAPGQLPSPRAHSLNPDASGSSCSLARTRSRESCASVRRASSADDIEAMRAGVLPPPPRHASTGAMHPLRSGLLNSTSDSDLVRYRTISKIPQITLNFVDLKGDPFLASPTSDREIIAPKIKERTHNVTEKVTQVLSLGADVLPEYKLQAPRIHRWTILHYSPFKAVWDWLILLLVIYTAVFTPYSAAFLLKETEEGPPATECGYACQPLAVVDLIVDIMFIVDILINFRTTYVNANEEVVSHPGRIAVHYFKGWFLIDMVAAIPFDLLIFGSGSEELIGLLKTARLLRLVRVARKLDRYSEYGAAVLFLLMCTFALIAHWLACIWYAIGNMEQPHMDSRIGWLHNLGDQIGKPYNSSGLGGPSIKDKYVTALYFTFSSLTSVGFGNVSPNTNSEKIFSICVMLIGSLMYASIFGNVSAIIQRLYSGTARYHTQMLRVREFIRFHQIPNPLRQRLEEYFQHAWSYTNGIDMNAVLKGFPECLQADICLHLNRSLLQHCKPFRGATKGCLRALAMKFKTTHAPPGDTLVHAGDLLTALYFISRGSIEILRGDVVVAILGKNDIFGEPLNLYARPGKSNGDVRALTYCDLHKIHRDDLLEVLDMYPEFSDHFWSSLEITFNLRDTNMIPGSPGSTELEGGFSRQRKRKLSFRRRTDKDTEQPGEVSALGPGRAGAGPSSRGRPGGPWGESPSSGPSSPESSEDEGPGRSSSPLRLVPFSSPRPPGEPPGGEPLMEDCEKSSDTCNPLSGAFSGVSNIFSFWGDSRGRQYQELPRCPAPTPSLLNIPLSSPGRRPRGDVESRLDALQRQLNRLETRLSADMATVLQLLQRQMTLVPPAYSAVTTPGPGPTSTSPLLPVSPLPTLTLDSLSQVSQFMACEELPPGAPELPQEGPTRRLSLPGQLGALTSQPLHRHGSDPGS
Procedure: Compounds were screened to test their activity in blocking the hERG potassium channel. The hERG channel is heterologously expressed in a CHO (Chinese Hamster Ovary) cell line. Cells are maintained with standard tissue culture procedures and stable channel expression is maintained with 500 μg/ml G418 in the culture medium. Cells are harvested for testing on the PatchXpress automated patch clamp with Accumax (Innovative Cell Technologies, San Diego, Calif.) to isolate single cells.
The following solutions are used for electrophysiological recordings. The external solution contains: 2 mM CaCl2; 2 mM MgCl2; 4 mM KCl; 150 mM NaCl; 10 mM Glucose; 10 mM HEPES (pH 7.4 with 1M NaOH, osmolarity).
hERG channels are activated when the voltage is stepped to +20 mV from the −80 mV holding potential (see FIG. 3). During a 5 second step at +20 mV, the channels activate and then largely inactivate, so the currents are relatively small. Upon returning to −50 mV from +20 mV, hERG currents transiently become much larger as inactivation is rapidly removed and then the channel closes. The first step to −50 mV for 300 ms is used as a baseline for measuring the peak amplitude during the step to −50 mV after channel activation. The peak current at −50 mV is measured both under control conditions and after addition of compound.
All compounds are prepared as 10 mM DMSO stocks in glass vials. Stock solutions are mixed by vigorous vortexing and sonication for about 2 minutes at room temperature. For testing, compounds are diluted in glass vials using an intermediate dilution step in pure DMSO and then further diluted to working concentrations in external solution. Dilutions are prepared no longer than 20 minutes before use.
After achieving the whole-cell configuration, cells are monitored for 90 seconds to assess stability and washed with external solution for 66 seconds. The voltage protocol described above is then applied to the cells every 12 seconds and throughout the whole procedure. Only cells with stable recording parameters and meeting specified health criteria are allowed to enter the compound addition procedure.
External solution containing 0.1% DMSO (vehicle) is applied to the cells first to establish the control peak current amplitude. After allowing the current to stabilize for 3 to 5 minutes, 1 μM and then 10 μM test compounds are applied. Each compound concentration is added 4 times and cells are kept in test solution until the effect of the compound reaches steady state or for a maximum of 12 minutes. […] Washout in the external solution compartment is performed until the recovery of the current reaches steady state. Data are analyzed using DataXpress, Clampfit (Molecular Devices, Inc., Sunnyvale) and Origin 7 (Originlab Corp.)

[2] = biological target: T1, wild-type human cardiac sodium channel, hNav1.5; experiment: Peak INa screening assay (tonic block TB and use-dependent block UDB of peak sodium current); assay type: cell-based; details: compound at 10 μM
Procedure: The late sodium current (Late INa) and peak sodium current (Peak INa) assays are performed on an automated electrophysiology platform, PatchXpress 7000A (MDS Analytical Technologies, Sunnyvale, Calif.), which uses the whole cell patch clamp technique to measure currents through the cell membrane of up to 16 cells at a time. The assay uses an HEK293 (human embryonic kidney) cell line heterologously expressing the wild-type human cardiac sodium channel, hNav1.5, purchased from Millipore (Billerica, Mass.). No beta subunits were coexpressed with the Na channel alpha subunit. […] Experiments are carried out at 24-27° C.
For both the Late INa and Peak INa assays, series resistance compensation is set to 50% and whole-cell compensation is performed automatically. […] Currents through open sodium channels are automatically recorded and stored in the DataXpress2 database (MDS Analytical Technologies, Sunnyvale, Calif.). Analysis is performed using DataXpress2 analysis software and data are compiled in Excel.
Compound stocks are routinely made in glass vials to 10 mM in dimethyl sulfoxide (DMSO). In some cases, when compounds are not soluble in DMSO, they are made in 100% ethanol. Stocks are sonicated as necessary. The extracellular solution for screening Late INa is composed of: 140 mM NaCl, 4 mM KCl, 1.8 mM CaCl2, 0.75 mM MgCl2, and 5 mM HEPES with pH adjusted to 7.4 using NaOH. The extracellular solution for screening Peak INa is composed of: 20 mM NaCl, 120 mM N-methyl-D glucamine, 4 mM KCl, 1.8 mM CaCl2, 0.75 mM MgCl2, and 5 mM HEPES with pH adjusted to 7.4 using HCl. The intracellular solution used to perfuse the inside of the cells for both the Late INa and Peak INa assays contains: 120 mM CsF, 20 mM CsCl, 5 mM EGTA, 5 mM HEPES and pH adjusted to 7.4 with CsOH. Compounds are diluted in extracellular solution to 10 μM in glass vials and then transferred to glass well plates before robotic addition to the cells. The 0 Na extracellular solution used at the end of each experiment for the Late INa and Peak INa assays to measure baseline current contains: 140 mM N-methyl-D-glucamine; 4 mM KCl; 1.8 mM CaCl2; 0.75 mM MgCl2; 5 mM HEPES and pH was adjusted to 7.4 with HCl.
Compounds were also evaluated for their effect in several other assays, including their effect on Peak INa. In some cases, the effect on Peak INa was measured using data from the Late INa assay. […] Since the peak INa can be very large, introducing artifacts in the recording, the concentration of Na^+ in the bath is reduced to 20 mM and a nonpermeant cation is added to compensate for the Na^+ that was omitted from the standard extracellular solution (see above). The peak INa assay uses a holding potential of −100 mV and a 20 ms test pulse to 0 mV to activate the channel. As in the Late INa assay, stepping the voltage to 0 mV causes a rapid increase in negative Na current through hNav1.5 that inactivates within a few ms. No late INa activator is added for the peak assay.
For the separate peak INa assay, both tonic (TB) block and use-dependent (UDB) block of peak inward sodium current by 10 μM compound are determined. TB is block of the channel in the resting state, before the channel opens. TB is simulated in this assay by stimulating the channel to open at a low frequency (0.1 Hz). This is done in order to measure the control current amplitude and monitor current rundown, enabling correction for rundown in the calculation of percent block for TB.

[3] = tonic block, read-out: Tonic Peak INa % blk
[4] = use-dependent block, read-out: UDB Peak INa % blk

T1 sequence (Q14524 whole entry): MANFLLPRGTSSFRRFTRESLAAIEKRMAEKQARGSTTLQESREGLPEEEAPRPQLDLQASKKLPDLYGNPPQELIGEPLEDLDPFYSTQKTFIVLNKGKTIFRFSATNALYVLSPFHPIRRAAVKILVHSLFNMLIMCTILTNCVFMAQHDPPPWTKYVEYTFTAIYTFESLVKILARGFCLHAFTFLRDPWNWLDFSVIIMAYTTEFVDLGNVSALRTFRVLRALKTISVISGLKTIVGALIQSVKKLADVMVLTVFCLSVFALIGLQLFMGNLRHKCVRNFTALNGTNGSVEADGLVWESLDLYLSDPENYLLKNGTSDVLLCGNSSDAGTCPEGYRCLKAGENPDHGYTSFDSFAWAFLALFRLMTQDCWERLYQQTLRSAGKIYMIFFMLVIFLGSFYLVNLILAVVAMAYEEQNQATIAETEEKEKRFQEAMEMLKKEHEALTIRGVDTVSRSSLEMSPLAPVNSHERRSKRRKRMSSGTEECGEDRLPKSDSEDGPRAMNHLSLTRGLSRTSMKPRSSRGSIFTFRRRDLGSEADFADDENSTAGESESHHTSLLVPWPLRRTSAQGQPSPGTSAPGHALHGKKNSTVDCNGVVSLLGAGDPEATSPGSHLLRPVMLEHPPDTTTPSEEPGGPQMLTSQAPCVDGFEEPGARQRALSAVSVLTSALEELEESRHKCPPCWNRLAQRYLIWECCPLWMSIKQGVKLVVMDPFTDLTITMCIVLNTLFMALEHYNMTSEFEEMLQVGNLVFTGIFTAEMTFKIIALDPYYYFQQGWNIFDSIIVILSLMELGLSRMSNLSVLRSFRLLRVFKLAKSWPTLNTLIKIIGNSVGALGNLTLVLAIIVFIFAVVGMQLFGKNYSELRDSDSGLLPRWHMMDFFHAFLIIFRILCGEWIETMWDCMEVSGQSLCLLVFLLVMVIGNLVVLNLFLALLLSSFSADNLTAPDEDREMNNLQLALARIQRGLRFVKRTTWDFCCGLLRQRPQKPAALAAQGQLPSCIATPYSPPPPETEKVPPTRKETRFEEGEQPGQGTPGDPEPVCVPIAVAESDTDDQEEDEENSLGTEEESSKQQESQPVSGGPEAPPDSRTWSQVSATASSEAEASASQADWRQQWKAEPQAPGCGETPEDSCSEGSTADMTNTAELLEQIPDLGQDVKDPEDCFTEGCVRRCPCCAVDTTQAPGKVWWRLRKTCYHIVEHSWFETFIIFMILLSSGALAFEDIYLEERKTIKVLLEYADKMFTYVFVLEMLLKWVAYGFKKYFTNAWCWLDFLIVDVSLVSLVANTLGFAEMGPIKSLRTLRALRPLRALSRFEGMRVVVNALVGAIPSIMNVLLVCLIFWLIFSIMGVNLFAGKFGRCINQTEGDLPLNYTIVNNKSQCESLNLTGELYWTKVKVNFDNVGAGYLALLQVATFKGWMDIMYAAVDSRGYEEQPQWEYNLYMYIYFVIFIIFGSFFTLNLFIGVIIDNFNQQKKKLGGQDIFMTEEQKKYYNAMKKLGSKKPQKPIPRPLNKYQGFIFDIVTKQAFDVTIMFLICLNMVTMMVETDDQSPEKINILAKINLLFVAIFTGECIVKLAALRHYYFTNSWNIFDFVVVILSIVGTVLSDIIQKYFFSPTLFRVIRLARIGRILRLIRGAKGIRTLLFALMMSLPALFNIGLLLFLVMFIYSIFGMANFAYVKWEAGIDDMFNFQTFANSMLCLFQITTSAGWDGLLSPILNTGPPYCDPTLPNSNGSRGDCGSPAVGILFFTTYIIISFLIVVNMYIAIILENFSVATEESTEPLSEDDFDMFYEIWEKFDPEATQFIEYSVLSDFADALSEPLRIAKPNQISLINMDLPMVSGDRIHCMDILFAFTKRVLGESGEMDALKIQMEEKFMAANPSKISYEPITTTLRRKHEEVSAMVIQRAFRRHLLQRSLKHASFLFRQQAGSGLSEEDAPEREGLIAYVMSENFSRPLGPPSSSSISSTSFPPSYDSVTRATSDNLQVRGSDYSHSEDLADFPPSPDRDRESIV

Row | Structure (SMILES) | inhibition at 10 µM ([1]; compound at 10 μM) [%] | hERG Patch Clamp hERG % blk (hERG potassium channel; 1 μM) [%] | hERG Patch Clamp hERG % blk (hERG potassium channel; 10 μM) [%] | inhibition at 10 µM [2, 3] [%] | inhibition at 10 µM [2, 4] [%] | inhibition at 10 µM [1] [%]
1 | CC1=C(C(=O)OCc2ccccc2)C(c2ccc3ccccc3c2)c2c(C)n[nH]c2N1 (stereo not drawn) [PT-325, benzyl 3,6-dimethyl-4-(naphthalen-2-yl)-4,7-dihydro-1H-pyrazolo[3,4-b]pyridine-5-carboxylate] | 53.8 | 10.0 | 36.0 | 19.9 | 24.3 | 
2 | COc1cc(Cl)ccc1COC(=O)C1=C(C)Nc2nnnn2C1c1c(Cl)cccc1Cl (stereo not drawn) [PT-306, 4-chloro-2-methoxybenzyl 7-(2,6-dichlorophenyl)-5-methyl-4,7-dihydrotetrazolo[1,5-a]pyrimidine-6-carboxylate] | 70.4 | 10.0 | 48.5 | 20.1 | 9 | 
3 | C=CCOC(=O)C1=C(C)Nc2nnnn2C1c1cccc2ccccc12 (stereo not drawn) [PT-319, allyl 5-methyl-7-(naphthalen-1-yl)-4,7-dihydrotetrazolo[1,5-a]pyrimidine-6-carboxylate] | 55.7 | 10.0 | 41.0 | 4.5 |  | 
4 | CCOC(=O)C1=C(C)Nc2nnnn2C1c1ccc2ccccc2c1 (stereo not drawn) [PT-008, ethyl 5-methyl-7-(naphthalen-2-yl)-4,7-dihydrotetrazolo[1,5-a]pyrimidine-6-carboxylate] | 57.2 | 10.0 | 33.5 | 2.1 |  | 
5 | CC1=C(C(=O)OCc2ccccc2)C(c2ccccc2-c2cccc(NS(C)(=O)=O)c2)n2nnnc2N1 (stereo not drawn) [PT-348, benzyl 5-methyl-7-(3′-(methylsulfonamido)biphenyl-2-yl)-4,7-dihydrotetrazolo[1,5-a]pyrimidine-6-carboxylate] | 71.6 | 10.0 | 38.5 | 17.2 |  | 
6 | CC1=C(C(=O)OC(C)C)C(c2cccc3ccccc23)C(C(=O)OC(C)C)=C(C)N1 [PT-123, diisopropyl 2,6-dimethyl-4-(naphthalen-1-yl)-1,4-dihydropyridine-3,5-dicarboxylate] | 86.9 | 10.0 | 30.5 | 7 |  | 
7 | CC1=C(C(=O)N2CCC(c3ccc(C(=O)O)cc3)CC2)C(c2cccc3ccccc23)C2=C(CCCC2=O)N1 (stereo not drawn) [PT-173, 4-(1-(2-methyl-4-(naphthalen-1-yl)-5-oxo-1,4,5,6,7,8-hexahydroquinoline-3-carbonyl)piperidin-4-yl)benzoic acid] | 52.6 | 12.0 | 37.0 | 0 |  | 
8 | COc1ccc(C2C(C(=O)OCc3ccccc3)=C(C)Nc3nnnn32)c(C#N)c1 (stereo not drawn) [PT-389, benzyl 7-(2-cyano-4-methoxyphenyl)-5-methyl-4,7-dihydrotetrazolo[1,5-a]pyrimidine-6-carboxylate] | 49.7 | 23.5 | 69.0 | -1.6 |  | 
9 | CC1=C(C(=O)OCc2ccccc2)C(c2cc3ccccc3o2)n2nnnc2N1 (stereo not drawn) [PT-045, benzyl 7-(benzofuran-2-yl)-5-methyl-4,7-dihydrotetrazolo[1,5-a]pyrimidine-6-carboxylate] | 92 | 10.0 | 70.0 | 23.8 |  | 
10 | CC1=C(C(=O)OC(C)C)C(c2ccc(Br)s2)C(C(=O)OC(C)C)=C(C)N1 [PT-124, diisopropyl 4-(5-bromothiophen-2-yl)-2,6-dimethyl-1,4-dihydropyridine-3,5-dicarboxylate] | 86.2 | 11.5 | 66.0 | 58.7 |  | 
11 | CC1=C(C(=O)OCc2ccccc2)C(c2cccs2)n2nnnc2N1 (stereo not drawn) [PT-040, benzyl 5-methyl-7-(thiophen-2-yl)-4,7-dihydrotetrazolo[1,5-a]pyrimidine-6-carboxylate] | 70.8 | 14.5 | 24.5 | 9.9 |  | 
12 | CCOC(=O)C1=C(C)NC(C)=C(C(=O)OCC)C1c1csc2ccccc12 [PT-115, diethyl 4-(benzo[b]thiophen-3-yl)-2,6-dimethyl-1,4-dihydropyridine-3,5-dicarboxylate] | 86 |  | 50.3 | 17.2 |  | 
13 | CC1=C(C(=O)OCc2ccccc2)C(c2ccccc2N2CCN(S(C)(=O)=O)CC2)n2nnnc2N1 (stereo not drawn) [PT-339, benzyl 5-methyl-7-(2-(4-(methylsulfonyl)piperazin-1-yl)phenyl)-4,7-dihydrotetrazolo[1,5-a]pyrimidine-6-carboxylate] | 51.4 | 11.5 | 43.5 | 22.2 | 9 | 
14 | CCOC(=O)C1=C(C)NC(C)=C(C(=O)OCC)C1c1ccc(CC)s1 [PT-113, diethyl 4-(5-ethylthiophen-2-yl)-2,6-dimethyl-1,4-dihydropyridine-3,5-dicarboxylate] | 88.6 | 11.0 | 57.3 | 30.4 |  | 
15 | CCOC(=O)C1=C(C)Nc2nnnn2C1c1cccc(Oc2ccccc2)c1 (stereo not drawn) [PT-464, ethyl 5-methyl-7-(3-phenoxyphenyl)-4,7-dihydrotetrazolo[1,5-a]pyrimidine-6-carboxylate] | 55.8 | 11.0 | 55.0 | 2.7 |  | 
16 | CCOC(=O)C1=C(C)N(C)C(C)=C(C(=O)OCC)C1c1cccc2ccccc12 [PT-191, diethyl 1,2,6-trimethyl-4-(naphthalen-1-yl)-1,4-dihydropyridine-3,5-dicarboxylate] | 63.2 | 26.5 | 68.0 | 0 |  | 
17 | CCOC(=O)C1=C(CC)NC(CC)=C(C(=O)OCC)C1c1ccc(Br)s1 [PT-181, diethyl 4-(5-bromothiophen-2-yl)-2,6-diethyl-1,4-dihydropyridine-3,5-dicarboxylate] | 91.7 | 10.5 | 73.0 | 76.5 |  | 
18 | CC1=C(C(=O)OCc2ccccc2)C(c2cccc3ccccc23)n2nnnc2N1 (stereo not drawn) [PT-027, benzyl 5-methyl-7-(naphthalen-1-yl)-4,7-dihydrotetrazolo[1,5-a]pyrimidine-6-carboxylate] | 74.9 | 14.0 | 64.5 | 29.7 | 6.8 | 
19 | CCOC(=O)C1=C(C)Nc2[nH]ncc2C1c1ccc(OC)cc1OCc1ccccc1 (stereo not drawn) [PT-445, ethyl 4-(2-(benzyloxy)-4-methoxyphenyl)-6-methyl-4,7-dihydro-1H-pyrazolo[3,4-b]pyridine-5-carboxylate] | 62.2 | 10.5 | 50.0 | 49.6 | 31.6 | 
20 | CCOC(=O)C1=C(C)Nc2nnnn2C1c1cccc2ccccc12 (stereo not drawn) [PT-192, ethyl 5-methyl-7-(naphthalen-1-yl)-4,7-dihydrotetrazolo[1,5-a]pyrimidine-6-carboxylate] |  | 23.0 | 29.0 | 0 |  | 52.3
